Literature values in patent US7906649B2, “Aminocyclohexanes as dipeptidyl peptidase-IV inhibitors for the treatment of diabetes” (Merck Sharp & Dohme Corp., priority 2005, dated 2011).

Legend:
[1] = tested on: cardiac allograft survival; conditions: rats; survival doubled from day 7
[2] = tested on: hematopoiesis; conditions: mouse, cyclophosphamide-induced neutropenia
[3] = tested on: GRF degradation in plasma

## CC(C)N1CCC(c2ccccc2)(c2ccccc2)CC1 [Prodipine, Pro-Pro-diphenyl-phosphonate]
[1]
  cardiac allograft survival: 14 day

## CC(C)[C@H](N)C(=O)N1CCC[C@H]1B(O)O [Val-Boro-Pro]
[2]
  effect on hematopoiesis: stimulated hematopoiesis

## diprotin A
[3]
  degradation of GRF to GRF[3-44] in plasma: prevented
